Measured values published in article PMC5594493, “Antiproliferative factor (APF) binds specifically to sites within the cytoskeleton-associated protein 4 (CKAP4) extracellular domain” (BMC Biochemistry, 2017).
Entries after “also recorded” stand apart in the source; their conditions may differ.

Experiments:
[1] = system: full-length CKAP4; test: SPR binding to full-length His-tagged CKAP4
Description: FL-CKAP4 was expressed in HEK 293 T cells (ATCC) and similarly purified by IMAC. Briefly, HEK 293 T cells were transfected with pcDNA3.1/V5-His TOPO vector (Life Technologies) expressing FL-CKAP4 using X-tremeGENE 9 transfection reagent (Roche) according to manufacturer’s protocol. Cells were harvested after transient expression (24 h) and held at −80 °C before proceeding to purification. Cell lysate was prepared in PBS buffer containing 10 mM CHAPS, 20 mM imidazole and EDTA-free protease inhibitor cocktail and sonicated before proceeding to protein purification, as described above. All purified proteins were quantitated by the BCA method according to the manufacturer’s protocol using BSA as the standard (ThermoScientific). Because of the varied amino acid compositions of the purified recombinant proteins, the UV (λ280nm) absorbance method was also used for reference.
All SPR experiments were performed on a Biacore X-100 instrument (GE Healthcare) with the chip surface at 25 °C using PBS containing 0.01% Tween-20 as running buffer. CKAP4 recombinant proteins were immobilized individually either by Ni^2+/nitrilotriacetic acid (NTA) chelation on Sensor Chip NTA or by amine-coupling on Sensor Chip CM5, on the Fc2 channel. […] The data were analyzed using Biacore Evaluation software V2.0. […]

[2] = molecular target: T1, CKAP4_127–602 (Homo sapiens, UniProt Q07065); test: SPR, CKAP4_127–602 as immobilized ligand; assay type: binding; conditions: CKAP4_127–602 immobilized on NTA chip
T1 construct: encompassing only the extracellular domain (Aa 127–602) tagged at the C-terminus with a His-tag (CKAP4_127–602); His-tag (C); made in house; host or cells: E. coli BL21(DE3)pLysS
T1 sequence (Q07065 127-602): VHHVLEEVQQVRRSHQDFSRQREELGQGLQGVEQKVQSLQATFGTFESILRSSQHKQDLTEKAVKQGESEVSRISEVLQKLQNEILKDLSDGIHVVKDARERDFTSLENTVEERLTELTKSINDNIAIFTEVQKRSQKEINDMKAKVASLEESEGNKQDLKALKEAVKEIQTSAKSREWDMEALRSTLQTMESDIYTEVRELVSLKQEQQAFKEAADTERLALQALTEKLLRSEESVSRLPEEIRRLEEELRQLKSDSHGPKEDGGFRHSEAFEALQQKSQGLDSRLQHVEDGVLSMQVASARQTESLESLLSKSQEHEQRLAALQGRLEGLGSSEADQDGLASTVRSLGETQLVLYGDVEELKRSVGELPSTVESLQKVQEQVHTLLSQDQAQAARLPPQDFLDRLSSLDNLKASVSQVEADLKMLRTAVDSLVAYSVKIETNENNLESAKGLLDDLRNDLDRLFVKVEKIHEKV
Description: (§1) All SPR experiments were performed on a Biacore X-100 instrument (GE Healthcare) with the chip surface at 25 °C using PBS containing 0.01% Tween-20 as running buffer. CKAP4 recombinant proteins were immobilized individually either by Ni^2+/nitrilotriacetic acid (NTA) chelation on Sensor Chip NTA or by amine-coupling on Sensor Chip CM5, on the Fc2 channel. For amine-coupling, the sensor surface on both flow cells was activated for 7 min with a 1:1 mixture of 0.1 M EDC (1-ethyl-3-(3-dimethylaminopropyl) carbodiimide hydrochloride) and 0.1 M NHS (N-hydroxysuccinimide) at a flow rate of 5 μl/min. Immobilization of CKAP4 proteins (on Fc2) was performed in 10 mM sodium acetate buffer, at either pH 4.5, 5.0, or 5.5 based on preliminary pH scouting runs, for optimal binding. Unreacted NHS groups were quenched with a 7 min injection of 1 M ethanolamine pH 8.5. The Fc1 channel was treated similarly but without CKAP4 and served as a reference. Upon stabilization of the baseline signal, multi-cycle kinetics assays were performed with injections of as-APF as analyte at various concentrations (2.5–40 μM) in running buffer at 30 μl/min for 2 min, immediately followed by a 3 min dissociation phase. […] The data were analyzed using Biacore Evaluation software V2.0. […]

[3] = system: CKAP4_106–602; test: SPR, CKAP4_106–602 as immobilized ligand; assay type: binding; conditions: CKAP4_106–602 immobilized on NTA chip
Description: as §1

[4] = system: cell proliferation; conditions: cited from earlier work
Description: Cells were treated with 20 nM APF or as-APF for 96 h and the rate of cell growth was measured using the XTT proliferation assay. […] The rate of growth of T24 cells was reduced by 47% with APF and by 60% with as-APF, relative to cells treated with vehicle alone; moreover, the difference in the antiproliferative effect of as-APF and APF was de ...

**Q.** Which binding ([1]; CKAP4FL immobilized via His-tag on NTA chip) does the source give for “Neu5Acα2 − 3Galβ1 − 3GalNAcα-O-TVPAAVVVA [APF]” here?
**A.** did not generate sufficient binding

**Q.** And the binding activity ([1]; full-length His-tagged CKAP4 purified from mammalian cells)?
**A.** did not detect appreciable binding activity

**Q.** And the binding [2]?
**A.** did not bind robustly

**Q.** And the binding [3]?
**A.** did not bind robustly; also recorded: did not generate sufficient binding

**Q.** And the “relative antiproliferative effect of as-APF and APF” value ([4]; ref [2])?
**A.** more or less equipotent

**Q.** What about the IC50 ([4]; ref [3], read-out: IC50, inhibition of proliferation) of the same substance?
**A.** ~1 nM
